Assay type in all cases: cell-based
The subject of data set [1] is human epithelial HeLa cells. As to the kind of experiment: HeLa cytotoxicity assay (CellTiter-Glo). The following applies: pCC50. The method, boiled down: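 HeLa cells (5,000/well) stimulated with 10 nM IFN-γ, exposed to 11-point 3-fold compound dilutions for 2 days at 37 °C; viability by CellTiter-Glo ATP luminescence. Normalized to cell-free (100% cytotoxicity) and stimulated-cell DMSO (0%) controls; four-parameter fit gives pCC50.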
A general note: In ATP-based viability assays light output follows the ATP content of the culture.

Data set [2] relates to human peripheral blood mononuclear cells (PBMC). In words: PBMC cytotoxicity assay (CellTiter-Glo). The following applies: 2 days, pCC50. The method, boiled down: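 Human PBMC (50,000 cells/well) stimulated with IFN-γ 100 ng/ml and LPS 50 ng/ml were exposed to 11-point 3-fold compound dilutions for 2 days at 37 °C, 5% CO2. Viability read by CellTiter-Glo ATP luminescence and normalized to no-cell and stimulated-DMSO controls. XC50 derived by four-parameter fit.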

Data set [3] deals with T1, indoleamine 2, 3-dioxygenase (IDO1) (Homo sapiens, UniProt P14902). In words: IDO1 HeLa RapidFire MS assay (kynurenine detection by mass spectrometry). Also noted: to induce the expression of indoleamine 2, 3-dioxygenase (IDO1). The note with it: HeLa cells, pIC50, read-out: IDO1_HELA_PXC50 (converted). The method in brief: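 Compound potency reported as pIC50 from kynurenine/internal-standard ratio (RapidFire MS) in supernatant of IFN-γ-induced (10 nM) HeLa cells, 5,000 per well, after 2 days' treatment with 11-point dilutions. Cytotoxicity in the same format by luminescent ATP detection, reported as pCC50.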

For data set [4], the target named is T1, indoleamine 2, 3-dioxygenase (IDO1). As to the kind of experiment: IDO1 PBMC RapidFire MS assay (kynurenine detection by mass spectrometry). Also noted: to induce the expression of indoleamine 2, 3-dioxygenase (IDO1); host or cells: human PBMC stimulated with IFN-gamma and LPS. The note with it: human PBMC stimulated with IFN-γ and LPS, 2 days, pIC50, read-out: PBMC PXC50 (converted). The method in brief:
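PBMCs (50,000 cells/well) stimulated with IFN-γ 100 ng/ml plus LPS 50 ng/ml, treated with 11-point 3-fold compound series for 2 days at 37° C. Supernatant kynurenine measured by RapidFire MS, normalised to internal standard; parallel cytotoxicity by CellTiter-Glo luminescence; curves fitted for XC50.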

T1 sequence (P14902 whole entry): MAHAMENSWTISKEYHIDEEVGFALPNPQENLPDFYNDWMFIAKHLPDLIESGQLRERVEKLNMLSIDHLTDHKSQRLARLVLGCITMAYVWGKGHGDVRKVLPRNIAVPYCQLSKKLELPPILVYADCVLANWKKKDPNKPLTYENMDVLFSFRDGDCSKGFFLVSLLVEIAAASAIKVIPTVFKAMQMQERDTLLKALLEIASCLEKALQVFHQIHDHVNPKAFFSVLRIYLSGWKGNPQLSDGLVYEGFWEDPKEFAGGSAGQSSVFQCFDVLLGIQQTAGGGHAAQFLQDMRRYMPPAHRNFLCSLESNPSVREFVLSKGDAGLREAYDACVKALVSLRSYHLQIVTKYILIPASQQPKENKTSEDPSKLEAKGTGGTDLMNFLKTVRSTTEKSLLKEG

`CC(C)CN(c1ccc(C(C)CC(=O)O)cc1NC1=NC(=O)[C@H](C)N1)C1CCCCC1` (stereo partly drawn) [example 164, 3-{4-[cyclohexyl(2-methylpropyl)amino]-3-{[(5S)-5-methyl-4-oxo-4,5-dihydro-1H-imidazol-2-yl]amino}phenyl}butanoic acid]: the HELA_IDO1_TOX_PXC50 in data set [1] is on record as less than 5. Besides, in data set [2], the “PBMC TOX PXC50” value is listed as less than 5. The IC50 was 631 nM in data set [3] and 316 nM in data set [4].
`Cc1nsc(Nc2cc(-c3ccccc3C(=O)O)ccc2N(CC(C)C)CC(C)C)n1` [example 286, 4′-[bis(2-methylpropyl)amino]-3′-[(3-methyl-1,2,4-thiadiazol-5-yl)amino]-[1,1′-biphenyl]-2-carboxylic acid] gave an HELA_IDO1_TOX_PXC50 in data set [1] of less than 5. The “PBMC TOX PXC50” value in data set [2] is listed as less than 5. In addition, the IC50 in data set [3] was 501 nM; in data set [4], 200 nM.
As for `CNC(=O)N1CCC(N(CC(C)C)c2ccc([C@H](C)CC(=O)O)cc2Nc2nc(C(F)(F)F)ns2)CC1` [example 262, (3R)-3-(4-{[1-(methylcarbamoyl)piper-idin-4-yl](2-methylpropyl)amino}-3-{[3-(trifluoromethyl)-1,2,4-thiadiazol-5-yl]amino}phenyl)butanoic acid], the HELA_IDO1_TOX_PXC50 in data set [1] is less than 5. Moreover, the “PBMC TOX PXC50” value in data set [2] is reported as less than 5. Also, the figures for the IC50 in data set [3] and in data set [4] were 100 nM and 20 nM, respectively.
Consider `CC(C)CN(c1ccc(C(C)(C)CC(=O)O)cc1Nc1nc(Cl)ns1)C1CCOCC1` [Example 5, 3-(3-((3-chloro-1,2,4-thiadiazol-5-yl)amino)-4-(isobutyl(tetrahydro-2H-pyran-4-yl)amino)phenyl)-3-methylbutanoic Acid], for which the HELA_IDO1_TOX_PXC50 in data set [1] is on record as less than 5. The “PBMC TOX PXC50” value in data set [2] is less than 5. Besides, the values for the IC50 in data set [3] and in data set [4] were 25.1 nM and 5.01 nM, respectively.
For `CC(C)CN(c1ccc(C(C)CC(=O)O)cc1NC1=NC(=O)[C@@H](c2ccccc2)N1)C1CCCCC1` (stereo partly drawn) [example 155, 3-{4-[cyclohexyl(2-methylpropyl)amino]-3-{[(5R)-4-oxo-5-phenyl-4,5-dihydro-1H-imidazol-2-yl]amino}phenyl}butanoic acid], the HELA_IDO1_TOX_PXC50 in data set [1] was less than 5. For the same compound, in data set [2], the “PBMC TOX PXC50” value is recorded as less than 5. Besides, the figures for the IC50 in data set [3] and in data set [4] were 1000 nM and 1580 nM, respectively.
In data set [1], `CC(C)CN(c1ccc([C@H](C)CC(=O)O)cc1Nc1nnc(C2CC2)[nH]1)C1CCOCC1` [example 210, (3R)-3-{3-[(5-cyclopropyl-4H-1,2,4-triazol-3-yl)amino]-4-[(2-methylpropyl)(oxan-4-yl)amino]phenyl}butanoic acid] came in with an HELA_IDO1_TOX_PXC50 of less than 5. Further, the “PBMC TOX PXC50” value in data set [2] was less than 5. Also, the IC50 is 50.1 nM in data set [3] and 39.8 nM in data set [4].
Consider `CC(C)CN(CC(C)C)c1ccc(C(C)CC(=O)O)cc1Nc1ncccn1` (stereo not shown) [example 156, 3-{4-[bis(2-methylpropyl)amino]-3-[(pyrimidin-2-yl)amino]phenyl}butanoic acid], for which the HELA_IDO1_TOX_PXC50 in data set [1] is given as less than 5. Besides, the “PBMC TOX PXC50” value in data set [2] was less than 5. The results for the IC50 in data set [3] and in data set [4] were more than 10000 nM and 7940 nM, respectively.
The compound `CC[C@H](CC(=O)O)c1ccc(N(CC(C)C)CC(C)C)c(Nc2nc(C(F)(F)F)ns2)c1` [Example 39, (R)-3-(4-(diisobutylamino)-3-((3-(trifluoromethyl)-1,2,4-thiadiazol-yl)amino)phenyl)pentanoic Acid] came in with an HELA_IDO1_TOX_PXC50 in data set [1] of less than 5. Also, in data set [2], the “PBMC TOX PXC50” value is less than 5. Also, the figures for the IC50 in data set [3] and in data set [4] were 2.51 nM and 1 nM, respectively.
Turning to `COCCc1nnc(Nc2cc([C@H](C)CC(=O)O)ccc2N(CC(C)C)CC(C)C)[nH]1` [example 203, (3R)-3-{4-[bis(2-methylpropyl)amino]-3-{[5-(2-methoxyethyl)-4H-1,2,4-triazol-3-yl]amino}phenyl}butanoic acid], in data set [1], the HELA_IDO1_TOX_PXC50 was less than 5. Moreover, in data set [2], the “PBMC TOX PXC50” value was less than 5. Besides, the IC50 in data set [3] is 63.1 nM; in data set [4] it was 31.6 nM.
`CC(C)CN(c1ccc([C@H](C)CC(=O)O)cc1Nc1cnc(C#N)nc1)C1CCOCC1` [Example 17, (R)-3-(3-((2-cyanopyrimidin-5-yl)amino)-4-(isobutyl(tetrahydro-2H-pyran-4-yl)amino)phenyl)butanoic Acid] returned an HELA_IDO1_TOX_PXC50 in data set [1] of less than 5. The “PBMC TOX PXC50” value in data set [2] is given as less than 5. In addition, the IC50 is 6.31 nM in data set [3] and 2 nM in data set [4].
Turning to `CO[C@H]1CC[C@@H](N(CC(C)C)c2ccc(-c3ccccc3C(=O)O)cc2Nc2nc(C(F)(F)F)ns2)CC1` [example 276, 4′-[(2-methylpropyl)[(1s,4s)-4-methoxycyclohexyl]ami-no]-3′-{[3-(trifluoromethyl)-1,2,4-thiadiazol-5-yl]amino}-[1,1′-biphenyl]-2-carboxylic acid], the HELA_IDO1_TOX_PXC50 in data set [1] was less than 5. Besides, the “PBMC TOX PXC50” value in data set [2] is less than 5. For the same compound, the results for the IC50 in data set [3] and in data set [4] were 3.98 nM and more than 10000 nM, respectively.
`CC(C)CN(c1ccc(-c2cccnc2C(=O)O)cc1Nc1nc2ccccc2o1)C1CCCCC1` [example 290, 3-{3-[(1,3-benzoxazol-2-yl)amino]-4-[cyclohexyl(2-methylpropyl)amino]phenyl}pyridine-2-carboxylic acid] had an HELA_IDO1_TOX_PXC50 in data set [1] of less than 5. The “PBMC TOX PXC50” value in data set [2] was less than 5. The IC50 in data set [3] was 126 nM; in data set [4] it was 50.1 nM.
Regarding `CC(C)CN(c1ccc([C@H](C)CC(=O)O)cc1Nc1cnc(C#N)cn1)C1CCOCC1` [Example 19, (R)-3-(3-((5-cyanopyrazin-2-yl)amino)-4-(isobutyl(tetrahydro-2H-pyran-4-yl)amino)phenyl)butanoic Acid], the HELA_IDO1_TOX_PXC50 in data set [1] was less than 5. For the same compound, in data set [2], the “PBMC TOX PXC50” value was less than 5. In addition, the results for the IC50 in data set [3] and in data set [4] were 5.01 nM and 2.51 nM, respectively.
On to `CC(C)CN(c1ccc(-c2ccccc2C(=O)O)cc1Nc1nc(C(N)=O)ns1)C1CCCCC1` [Example 91, 3′-((3-carbamoyl-1,2,4-thiadiazol-5-yl)amino)-4′-(cyclohexyl(isobutyl)amino)-[1,1′-biphenyl]-2-carboxylic acid], for which, in data set [1], the HELA_IDO1_TOX_PXC50 is less than 5. In addition, the “PBMC TOX PXC50” value in data set [2] is less than 5. Besides, the IC50 in data set [3] is 20 nM; in data set [4], 10 nM.
For the compound `CC(C)CN(c1ccc(-c2cccnc2C(=O)O)cc1Nc1nc(C(F)(F)F)ns1)C1CCCCC1` [Example 88, 3-(4-(cyclohexyl(isobutyl)amino)-3-((3-(trifluoromethyl)-1,2,4-thiadiazol-5-yl)amino)phenyl)picolinic Acid], the HELA_IDO1_TOX_PXC50 in data set [1] is on record as less than 5. Besides, the “PBMC TOX PXC50” value in data set [2] was less than 5. The IC50 in data set [3] was 5.01 nM; in data set [4], 3.98 nM.
Compound `CC(C)CN(c1ccc(-c2cnccc2C(=O)O)cc1Nc1nc2ccccc2o1)C1CCCCC1` [example 289, 3-{3-[(1,3-benzoxazol-2-yl)amino]-4-[cyclohexyl(2-methylpropyl)amino]phenyl}pyridine-4-carboxylic acid] came in with an HELA_IDO1_TOX_PXC50 in data set [1] of less than 5. The “PBMC TOX PXC50” value in data set [2] is less than 5. Also, the IC50 in data set [3] was 1260 nM; in data set [4], 501 nM.
In data set [1], `CC[C@H](CC(=O)O)c1ccc(N(CC(C)C)CC(C)C)c(Nc2nc(Cl)ns2)c1` [Example 40, (R)-3-(3-((3-chloro-1,2,4-thiadiazol-5-yl)amino)-4-(diisobutylmino)phenyl)pentanoic Acid] displayed an HELA_IDO1_TOX_PXC50 of less than 5. For the same compound, the “PBMC TOX PXC50” value in data set [2] is less than 5. Moreover, the IC50 is 12.6 nM in data set [3] and 2.51 nM in data set [4].
In data set [1], `CC(C)CN(c1ccc([C@H](C)Cc2nnn[nH]2)cc1Nc1nc(Cl)ns1)C1CCCCC1` [Example 102, (R)-4-(1-(1H-tetrazol-5-yl)propan-2-yl)-N^2-(3-chloro-1,2,4-thiadiazol-5-yl)-N^1-cyclohexyl-N^1-isobutylbenzene-1,2-diamine] showed an HELA_IDO1_TOX_PXC50 of less than 5. Moreover, the “PBMC TOX PXC50” value in data set [2] is on record as less than 5. Moreover, the IC50 in data set [3] was 7.94 nM; in data set [4], 5.01 nM.
In data set [1], `CC(C)CN(CC(C)C)c1ccc(C2CC2C(=O)O)cc1Nc1nc(C(F)(F)F)ns1` (stereo not shown) [example 174, 2-{4-[bis(2-methylpropyl)amino]-3-{[3-(trifluoromethyl)-1,2,4-thiadiazol-5-yl]amino}phenyl}cyclo-propane-1-carboxylic acid] registered an HELA_IDO1_TOX_PXC50 of less than 5. Besides, the “PBMC TOX PXC50” value in data set [2] is on record as less than 5. Further, the IC50 in data set [3] and in data set [4] was 12.6 nM throughout.

Source of the values: patent US10899754B2, “Modulators of indoleamine 2,3-dioxygenase” (GLAXOSMITHKLINE INTELLECTUAL PROPERTY DEVELOPMENT LIMITED, priority 2016, dated 2021).
